Test results as given in ChEMBL document CHEMBL1201862, “PubChem BioAssay data set” (2004).
Values belong to the molecule of their own block, whether it stands above or below them. Activity calls are given as the source filed them.

Experiments:
[1] = CellTiter-Glo luminescence survival assay, SW480 colon tumor line, concentration-response curve, half-maximal inhibitory concentration (AID 1117338); format: functional
[2] = RKO cell viability reduction, dose response, CellTiter-Glo luminescence (AID 1117322); format: functional
[3] = cytotoxicity toward HCT116 cells – cell-based, CellTiter-Glo luminescence, IC50, dose response (AID 1117332); format: functional; conditions: HCT-116
[4] = SNU-C1 cell viability reduction, dose response, CellTiter-Glo luminescence (AID 1117323); format: functional, cell-based
[5] = cytotoxicity toward Colo320 cells – cell-based, CellTiter-Glo luminescence, IC50, dose response (AID 1117334); format: functional; conditions: COLO 320
[6] = cytotoxicity toward HT-29 cells – cell-based, CellTiter-Glo luminescence, IC50, dose response (AID 1117330); format: functional
[7] = Reduced DLD-1 viability, concentration-response, CellTiter-Glo luminescence (AID 1117352); format: functional
[8] = HCT116 cell viability decrease, GSK3B pretreatment – CellTiter-Glo, IC50, dose response (AID 1117339); format: functional; conditions: HCT-116
[9] = Late stage assay provider results from the probe development effort to identify inhibitors of the Plasmodium falciparum M18 Aspartyl Aminopeptidase (M18AAP): radiolabel-based cell-based dose response assay to identify compounds that inhibit P. falciparum growth in RBCs, Set 2..; format: functional
[10] = molecular target: G-protein coupled receptor 183 (Homo sapiens, UniProt P32249); experiment: SAR confirmation of small molecule antagonists of the EBI2 receptor via a luminescent beta-arrestin assa.; format: functional
Estrogen receptor beta [11] = molecular target: T1, Estrogen receptor beta (Homo sapiens, UniProt Q92731);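 note: recombinant ER-beta bound to coactivator SRC1 peptide in presence of estradiol agonist; inhibitors block coactivator peptide binding and lower the FRET signal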
Estrogen receptor beta [12] = molecular target: T1, Estrogen receptor beta; experiment: blockers of SRC-3 recruitment to ERβ – biochemical, ELISA, streptavidin-HRP readout, orthogonal assay, confirmation (AID 1060)
[13] = molecular target: E3 ubiquitin-protein ligase UHRF1 (Homo sapiens, UniProt Q96T88); experiment: Counterscreen for inhibitors of 5-meCpG-binding domain protein 2 (MBD2): TRFRET-based biochemical high throughput dose response assay to identify inhibitors of binding of ubiquitin-like with PHD and ring finger domains 1 (UHRF1) to methylated oligonucleotide.
[14] = reduced cellular PGC1a acetyl-lysine signal – cell-based, cherry-picked samples, dose response (AID 720514); format: functional;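 note: potency may reflect raised or lowered acetylation signal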
[15] = molecular target: T2, Potassium channel subfamily K member 9 (Homo sapiens, UniProt Q9NPC2); experiment: TASK3 channel blockers, electrophysiology – cell-based, automated electrophysiology, selectivity assay for TASK1 (KCNK3) inhibitor project, SAR follow-up (AID 652210); format: functional
[16] = molecular target: T2, Potassium channel subfamily K member 9; experiment: KCNK9 flux blockade, concentration-response – cell-based, FluxOR thallium flux, selectivity assay for TASK1 inhibitor project, SAR follow-up (AID 652211); format: functional;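 note: potency is for inhibitors of the channel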
[17] = molecular target: Potassium channel subfamily K member 3 (Rattus norvegicus, UniProt O54912); experiment: SAR analysis for the identification of selective inhibitors of the two-pore domain potassium channel TASK1(KCNK3):Automated Electrophysiology.; format: functional
[18] = Luminescence-based cell-based high throughput dose response assay to identify activators of the DAF-12 from the parasite S. stercoralis (ssDAF-12).; format: functional
[19] = molecular target: T3, Oxysterols receptor LXR-beta (Homo sapiens, UniProt P55055); experiment: LXR agonists, Gal4 luciferase reporter, dose response, counter-screen for ssDAF-12 agonist project, cell-based, luminescence, HEK293, S. stercoralis campaign (AID 720737); format: functional; conditions: read-out: IC50 (the source's name)
T3 sequence (P55055 whole entry): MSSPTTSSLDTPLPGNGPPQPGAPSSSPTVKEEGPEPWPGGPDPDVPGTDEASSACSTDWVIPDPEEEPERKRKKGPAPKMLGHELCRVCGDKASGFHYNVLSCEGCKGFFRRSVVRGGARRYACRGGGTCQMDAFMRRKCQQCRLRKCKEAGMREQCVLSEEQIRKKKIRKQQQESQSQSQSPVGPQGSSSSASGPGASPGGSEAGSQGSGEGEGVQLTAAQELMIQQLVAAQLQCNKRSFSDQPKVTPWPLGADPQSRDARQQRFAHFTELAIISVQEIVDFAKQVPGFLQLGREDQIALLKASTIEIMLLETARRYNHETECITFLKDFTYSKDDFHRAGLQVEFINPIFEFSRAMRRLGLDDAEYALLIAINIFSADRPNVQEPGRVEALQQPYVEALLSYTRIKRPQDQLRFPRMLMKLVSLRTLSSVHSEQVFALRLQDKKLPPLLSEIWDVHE

Paired box protein Pax-8 = Paired box protein Pax-8 (Homo sapiens, UniProt Q06710); experiment: PAX8 transcriptional activity inhibition in RMG-I – RMG-I cells, luciferase, cherry-pick, dose response (AID 687027); format: functional, cell-based;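 note: luciferase reporter driven by Pax8 target thyroperoxidase promoter measured by SteadyGlo luminescence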
[20] = toxicity toward immortalized ovarian surface epithelium – cell-based, plate reader, dry powder samples, cytotoxicity control for PAX8 inhibitor project, dose response (AID 743045); format: functional
[21] = A2780 cell killing – plate reader, dry powder samples, cytotoxicity control, dose response (AID 743046); format: functional, cell-based
[22] = OVCAR-3 cell viability loss – plate reader, dry powder samples, PAX8 inhibitor project, dose response (AID 743044); format: functional, cell-based
[23] = IGROV1 cell killing – plate reader, dry powder samples, PAX8 inhibitor project, dose response (AID 743043); format: functional, cell-based; conditions: IGROV-1
[24] = general cell-killing toxicity readout – plate reader, dry powder samples, cytotoxicity control for PAX8 inhibitor project, dose response (AID 743021); format: functional, cell-based
[25] = OVCAR8 cell viability loss – plate reader, dry powder samples, PAX8 project, dose response (AID 743197); format: functional, cell-based; conditions: OVCAR-8
[26] = P. falciparum Dd2 growth inhibitors, dose response, SYBR Green, cherry-picked samples (AID 1159567); format: functional, cell-based
[27] = toxicity to human hepatoma HepG2 cells – cell-based, cherry-picked samples, cytotoxicity control, dose response (AID 1159577); format: functional
[28] = molecular target: Induced myeloid leukemia cell differentiation protein Mcl-1 (Homo sapiens, UniProt Q07820); format: functional
[29] = molecular target: T4, Carboxy-terminal domain RNA polymerase II polypeptide A small phosphatase 1 (Homo sapiens, UniProt Q9GZU7); experiment: CTDSP1 inhibitors, concentration-response, biochemical, absorbance readout, ultra-high-throughput screen actives (AID 540297); format: functional
T4 sequence (Q9GZU7 whole entry): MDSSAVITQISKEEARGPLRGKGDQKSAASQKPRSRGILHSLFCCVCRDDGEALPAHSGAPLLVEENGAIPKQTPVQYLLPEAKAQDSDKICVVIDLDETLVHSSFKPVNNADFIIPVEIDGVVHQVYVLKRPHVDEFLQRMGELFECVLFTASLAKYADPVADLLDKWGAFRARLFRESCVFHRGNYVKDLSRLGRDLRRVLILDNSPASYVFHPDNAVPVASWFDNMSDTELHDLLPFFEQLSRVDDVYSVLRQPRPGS

[30] = IC50 of Artemis nuclease activity blockers – biochemical, fluorescence intensity, dose response (AID 720701); format: functional;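 note: Artemis endonuclease enzyme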

T1 sequence (Q92731 whole entry): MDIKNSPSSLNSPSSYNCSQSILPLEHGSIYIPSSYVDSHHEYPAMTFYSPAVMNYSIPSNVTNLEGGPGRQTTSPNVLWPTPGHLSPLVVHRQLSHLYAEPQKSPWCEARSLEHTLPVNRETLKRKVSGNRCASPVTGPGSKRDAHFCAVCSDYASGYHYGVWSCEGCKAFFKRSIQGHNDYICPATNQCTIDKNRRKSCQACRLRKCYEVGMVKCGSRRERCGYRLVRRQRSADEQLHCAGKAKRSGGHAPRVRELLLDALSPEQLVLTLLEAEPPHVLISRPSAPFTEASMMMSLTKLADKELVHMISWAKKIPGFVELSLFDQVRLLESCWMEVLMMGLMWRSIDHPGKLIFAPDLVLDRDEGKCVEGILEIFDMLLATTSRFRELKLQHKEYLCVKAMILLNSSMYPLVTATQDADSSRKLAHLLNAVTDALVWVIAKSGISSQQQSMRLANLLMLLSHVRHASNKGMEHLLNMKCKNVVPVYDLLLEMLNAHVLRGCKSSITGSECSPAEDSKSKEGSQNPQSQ
T2 sequence (Q9NPC2 whole entry): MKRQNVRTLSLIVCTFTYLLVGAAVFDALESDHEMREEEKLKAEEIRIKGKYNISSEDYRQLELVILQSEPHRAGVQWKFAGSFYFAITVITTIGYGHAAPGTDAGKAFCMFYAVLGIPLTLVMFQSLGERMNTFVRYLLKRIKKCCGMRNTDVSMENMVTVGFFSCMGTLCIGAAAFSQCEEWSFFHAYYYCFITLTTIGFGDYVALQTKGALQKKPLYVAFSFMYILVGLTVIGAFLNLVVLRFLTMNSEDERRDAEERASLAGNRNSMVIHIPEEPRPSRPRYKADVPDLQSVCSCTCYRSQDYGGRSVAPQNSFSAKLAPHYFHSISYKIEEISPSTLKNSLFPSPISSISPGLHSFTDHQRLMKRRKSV
Chain of E3 ubiquitin-protein ligase UHRF1 (Q96T88 whole entry, the tested form may be a part): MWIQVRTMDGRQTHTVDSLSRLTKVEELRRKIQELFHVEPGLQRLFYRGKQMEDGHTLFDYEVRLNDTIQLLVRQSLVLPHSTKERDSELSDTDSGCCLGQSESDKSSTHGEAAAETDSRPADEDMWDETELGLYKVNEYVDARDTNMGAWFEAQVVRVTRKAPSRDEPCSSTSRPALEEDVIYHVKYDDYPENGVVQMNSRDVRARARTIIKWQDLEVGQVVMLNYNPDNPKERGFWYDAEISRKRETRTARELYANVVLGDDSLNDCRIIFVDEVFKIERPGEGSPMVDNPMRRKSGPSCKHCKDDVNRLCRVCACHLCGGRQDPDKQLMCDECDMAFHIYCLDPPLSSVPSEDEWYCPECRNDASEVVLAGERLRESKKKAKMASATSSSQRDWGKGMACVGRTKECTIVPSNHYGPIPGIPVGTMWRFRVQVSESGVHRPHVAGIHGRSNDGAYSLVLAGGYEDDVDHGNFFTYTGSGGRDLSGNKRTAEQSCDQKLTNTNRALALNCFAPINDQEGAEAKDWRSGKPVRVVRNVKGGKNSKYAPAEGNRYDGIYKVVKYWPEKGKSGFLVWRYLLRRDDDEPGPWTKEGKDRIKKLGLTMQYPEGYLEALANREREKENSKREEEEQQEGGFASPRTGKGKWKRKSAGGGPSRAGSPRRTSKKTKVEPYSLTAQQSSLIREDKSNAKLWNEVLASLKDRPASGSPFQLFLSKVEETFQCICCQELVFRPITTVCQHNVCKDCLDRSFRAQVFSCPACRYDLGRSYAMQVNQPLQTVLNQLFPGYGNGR
Chain of G-protein coupled receptor 183 (P32249 whole entry): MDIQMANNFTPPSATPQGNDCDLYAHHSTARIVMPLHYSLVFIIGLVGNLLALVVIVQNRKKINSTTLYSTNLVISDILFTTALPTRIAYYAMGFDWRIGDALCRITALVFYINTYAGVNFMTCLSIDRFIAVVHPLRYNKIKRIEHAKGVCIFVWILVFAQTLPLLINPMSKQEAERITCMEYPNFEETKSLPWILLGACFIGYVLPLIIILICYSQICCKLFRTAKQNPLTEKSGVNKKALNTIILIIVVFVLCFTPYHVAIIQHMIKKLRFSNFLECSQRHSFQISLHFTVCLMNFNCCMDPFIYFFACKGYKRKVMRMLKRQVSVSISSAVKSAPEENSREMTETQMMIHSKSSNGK
Chain of Potassium channel subfamily K member 3 (O54912 whole entry, the tested form may be a part): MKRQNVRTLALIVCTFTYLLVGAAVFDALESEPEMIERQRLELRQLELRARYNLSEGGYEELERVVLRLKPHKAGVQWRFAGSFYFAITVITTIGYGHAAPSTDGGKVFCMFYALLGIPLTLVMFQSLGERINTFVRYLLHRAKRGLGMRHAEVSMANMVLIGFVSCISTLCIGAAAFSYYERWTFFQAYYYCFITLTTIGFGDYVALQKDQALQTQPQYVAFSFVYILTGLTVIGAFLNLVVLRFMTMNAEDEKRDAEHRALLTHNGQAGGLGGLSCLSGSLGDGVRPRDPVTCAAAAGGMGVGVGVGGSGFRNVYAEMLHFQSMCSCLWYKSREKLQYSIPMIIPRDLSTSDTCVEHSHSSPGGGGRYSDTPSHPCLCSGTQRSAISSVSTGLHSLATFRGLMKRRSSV
Chain of Paired box protein Pax-8 (Q06710 whole entry): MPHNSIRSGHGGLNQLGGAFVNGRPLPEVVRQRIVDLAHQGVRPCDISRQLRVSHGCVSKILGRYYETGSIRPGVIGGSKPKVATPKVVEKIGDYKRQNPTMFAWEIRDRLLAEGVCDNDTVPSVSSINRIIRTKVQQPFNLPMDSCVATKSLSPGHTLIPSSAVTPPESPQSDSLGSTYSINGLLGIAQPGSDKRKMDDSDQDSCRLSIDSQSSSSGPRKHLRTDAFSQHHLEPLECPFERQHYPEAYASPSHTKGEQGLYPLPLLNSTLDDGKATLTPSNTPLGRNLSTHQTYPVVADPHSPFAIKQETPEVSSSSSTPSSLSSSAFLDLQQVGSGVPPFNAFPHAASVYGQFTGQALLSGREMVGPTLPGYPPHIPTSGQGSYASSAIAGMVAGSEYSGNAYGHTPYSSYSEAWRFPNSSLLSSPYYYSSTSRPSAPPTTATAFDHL
Chain of Induced myeloid leukemia cell differentiation protein Mcl-1 (Q07820 whole entry, the tested form may be a part): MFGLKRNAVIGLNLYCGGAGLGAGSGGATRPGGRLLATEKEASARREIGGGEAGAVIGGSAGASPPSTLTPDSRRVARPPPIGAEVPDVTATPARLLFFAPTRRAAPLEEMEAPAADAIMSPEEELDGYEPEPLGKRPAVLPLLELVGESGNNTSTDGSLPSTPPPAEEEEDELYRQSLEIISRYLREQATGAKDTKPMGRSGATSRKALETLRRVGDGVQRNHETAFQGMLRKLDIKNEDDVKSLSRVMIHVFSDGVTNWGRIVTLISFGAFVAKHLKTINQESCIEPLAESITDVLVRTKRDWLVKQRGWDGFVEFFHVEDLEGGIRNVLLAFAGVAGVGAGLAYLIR

SMILES: C/C(=N\O)[C@@H](C)NCC(C)(C)CN[C@H](C)/C(C)=N/O
- IC50 [1]: > 20 µM (inactive)
- IC50 [2]: > 20 µM (inactive)
- IC50 [3]: > 20 µM (inactive)
- IC50 [4]: > 20 µM (inactive)
- IC50 [5]: > 20 µM (inactive)
- IC50 [6]: > 20 µM (inactive)
- IC50 [7]: > 20 µM (inactive)
- IC50 [8]: > 20 µM (inactive)

SMILES: O=c1ccn(CCNc2c3ccccc3nc3ccccc23)cc1OCc1ccccc1
- IC50 [9]: 4.7 µM (active)

- IC50 [10]: 49.7 nM (active)
SMILES: O=C(/C=C/c1ccc(F)cc1)N1CCN(S(=O)(=O)c2cccc3ccccc23)CC1

- IC50 (Estrogen receptor beta [11]): > 50 µM (not active)
- IC50 (Estrogen receptor beta [12]): > 50 µM (not active)
- IC50 [13]: > 43.8 µM (inactive)
SMILES: Cc1onc(-c2ccccc2Cl)c1C(=O)NCc1ccco1

SMILES: COc1cc(CN2C[C@@H]3N[C@H](C2)[C@@H]3c2ccc(-c3cccc(OC)c3)cc2)cc(OC)c1
- AC50 [14]: 9.18 µM (active)

- IC50 [15]: 480 nM (active)
- IC50 [16]: 260 nM (active)
- IC50 [17]: 12 nM (active)
SMILES: COc1ccccc1C(=O)Nc1cccc(NC(=O)c2cccc(C)c2)c1

SMILES: C[C@@H](c1ccccc1)N1C[C@@H](COCc2ccccc2)Oc2cc(N3CCC[C@H]3C(N)=O)ccc2S1(=O)=O
- IC50 [18]: > 67.5 µM (inactive)
- EC50 [19]: > 67.5 µM (inactive)

SMILES: COc1ccc(C#Cc2ccc([C@H]3[C@@H](CO)N4CCCCN(C(=O)Nc5cccc(F)c5)C[C@H]34)cc2)cc1
- AC50 (Paired box protein Pax-8): 10.9 µM (active)
- AC50 [20]: 32.3 µM (active)
- AC50 [21]: 12.2 µM (active)
- AC50 [22]: 10 µM (active)
- AC50 [23]: 21.1 µM (active)
- AC50 [24]: 32.1 µM (active)
- AC50 [25]: > 70 µM (inactive)
- AC50 [26]: 1.28 µM (active)
- AC50 [27]: 7.31 µM (active)

- IC50 (Estrogen receptor beta [11]): > 50 µM (not active)
- IC50 [28]: 4.9 µM (active)
- IC50 [29]: 10.1 µM (active)
- IC50 [30]: 18.5 µM (active)
SMILES: Cc1nc2c(c(=O)n1CCC1=CCCCC1)c1nc3ccccc3nc1n2/N=C/c1ccco1
